Measured values published in ChEMBL document CHEMBL2010786, “Design and synthesis of benzenesulfonamide derivatives as potent anti-influenza hemagglutinin inhibitors” (ACS Med Chem Lett, 2011).
≈ marks a conversion by molar mass, not a printed value.

Key:
[1] = Oral bioavailability in CD1 mouse at 10 mg/kg; assay type: ADME, organism-based; details: in vivo
[2] = Solubility of the compound in phosphate buffer at pH 6.5; assay type: physicochemical

Structure (SMILES) | bioavailability [1] [%] | solubility [2] [µg/mL]
CC1(C)C[C@H](O)C[C@](C)(CNc2ccc(Cl)c(S(N)(=O)=O)c2)C1 | 70 | 
CC1(C)C[C@H](O)C[C@](C)(CNc2cc(Cl)cc(S(N)(=O)=O)c2)C1 | 55 | 
CC1(C)C[C@H](O)C[C@](C)(CNc2cccc(S(N)(=O)=O)c2)C1 (relative stereo) | 75 | 141 (≈ 432 µM)
